In the kinase profiling compilation of Christmann-Franck et al. (2016):

Assays:
Experiment in all cases: radiometric filter-binding kinase assay, Kinase HotSpot
Conditions in all cases: compound 0.5 µM; ATP 10 µM
KDR (human) = KDR (human) (UniProt P35968)
STK24 (human) = STK24 (human) (UniProt Q9Y6E0)
PRKCZ (human) = PRKCZ (human) (UniProt Q05513)
SRMS (human) = SRMS (human) (UniProt Q9H3Y6)
MAP3K14 (human) = MAP3K14 (human) (UniProt Q99558)
SLK (human) = SLK (human) (UniProt Q9H2G2)
DYRK1B (human) = DYRK1B (human) (UniProt Q9Y463)
GRK4 (human) = GRK4 (human) (UniProt P32298)
SGK2 (human) = SGK2 (human) (UniProt Q9HBY8)
Chain of SGK2 (human) (Q9HBY8 whole entry, looked up): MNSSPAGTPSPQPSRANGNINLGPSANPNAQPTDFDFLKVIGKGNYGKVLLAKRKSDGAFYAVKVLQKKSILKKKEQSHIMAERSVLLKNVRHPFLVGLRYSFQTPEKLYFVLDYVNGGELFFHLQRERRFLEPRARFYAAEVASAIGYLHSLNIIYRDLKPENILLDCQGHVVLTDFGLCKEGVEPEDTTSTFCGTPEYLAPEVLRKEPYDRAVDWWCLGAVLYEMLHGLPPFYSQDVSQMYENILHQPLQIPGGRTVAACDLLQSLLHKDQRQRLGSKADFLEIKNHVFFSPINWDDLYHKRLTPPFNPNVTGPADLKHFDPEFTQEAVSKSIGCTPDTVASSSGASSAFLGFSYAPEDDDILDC

ACVR1B (human) = ACVR1B (human) (UniProt P36896)
HIPK4 (human) = HIPK4 (human) (UniProt Q8NE63)
SIK2 (human) = SIK2 (human) (UniProt Q9H0K1)
DYRK3 (human) = DYRK3 (human) (UniProt O43781)
CAMKK2 (human) = CAMKK2 (human) (UniProt Q96RR4)
Chain of CAMKK2 (human) (Q96RR4 whole entry, looked up): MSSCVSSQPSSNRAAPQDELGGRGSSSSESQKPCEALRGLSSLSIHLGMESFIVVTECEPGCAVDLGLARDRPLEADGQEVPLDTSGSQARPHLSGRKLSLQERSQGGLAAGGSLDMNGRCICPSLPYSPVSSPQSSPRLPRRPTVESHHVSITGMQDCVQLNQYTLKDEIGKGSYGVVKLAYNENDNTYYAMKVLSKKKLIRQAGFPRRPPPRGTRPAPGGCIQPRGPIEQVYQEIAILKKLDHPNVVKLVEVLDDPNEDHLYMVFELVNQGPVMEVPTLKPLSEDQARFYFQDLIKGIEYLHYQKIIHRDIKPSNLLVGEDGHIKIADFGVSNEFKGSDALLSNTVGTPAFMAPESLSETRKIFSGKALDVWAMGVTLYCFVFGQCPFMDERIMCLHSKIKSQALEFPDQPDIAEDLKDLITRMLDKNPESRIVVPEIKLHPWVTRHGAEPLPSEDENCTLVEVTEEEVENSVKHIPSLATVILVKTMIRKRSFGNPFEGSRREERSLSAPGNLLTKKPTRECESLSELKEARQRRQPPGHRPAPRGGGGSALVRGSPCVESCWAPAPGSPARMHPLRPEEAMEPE

WNK2 (human) = WNK2 (human) (UniProt Q9Y3S1)
NUAK2 (human) = NUAK2 (human) (UniProt Q9H093)
BLK (human) = BLK (human) (UniProt P51451)
CDK1 CCNA2 (human) = CDK1 CCNA2 (human) (UniProt P06493+P20248)
[1] = molecular target: TYK2 JH1 catalytic (human) (UniProt P29597)
TNK2 (human) = TNK2 (human) (UniProt Q07912)
STK3 (human) = STK3 (human) (UniProt Q13188)
CDK5 CDK5R1 p35 (human) = CDK5 CDK5R1 p35 (human) (UniProt Q00535+Q15078)
[2] = system: FLT4 (human), P35916 [Q890H]
PRKCD (human) = PRKCD (human) (UniProt Q05655)
ROCK1 (human) = ROCK1 (human) (UniProt Q13464)
CAMK2B (human) = CAMK2B (human) (UniProt Q13554)
PRKD3 (human) = PRKD3 (human) (UniProt O94806)
MET (human) = MET (human) (UniProt P08581)
MELK (human) = MELK (human) (UniProt Q14680)
CSF1R (human) = CSF1R (human) (UniProt P07333)
CAMKK1 (human) = CAMKK1 (human) (UniProt Q8N5S9)
RPS6KA1 KD1 KD2 (human) = RPS6KA1 KD1 KD2 (human) (UniProt Q15418)
PDGFRA (human) = PDGFRA (human) (UniProt P16234)
Chain of PDGFRA (human) (P16234 whole entry, looked up): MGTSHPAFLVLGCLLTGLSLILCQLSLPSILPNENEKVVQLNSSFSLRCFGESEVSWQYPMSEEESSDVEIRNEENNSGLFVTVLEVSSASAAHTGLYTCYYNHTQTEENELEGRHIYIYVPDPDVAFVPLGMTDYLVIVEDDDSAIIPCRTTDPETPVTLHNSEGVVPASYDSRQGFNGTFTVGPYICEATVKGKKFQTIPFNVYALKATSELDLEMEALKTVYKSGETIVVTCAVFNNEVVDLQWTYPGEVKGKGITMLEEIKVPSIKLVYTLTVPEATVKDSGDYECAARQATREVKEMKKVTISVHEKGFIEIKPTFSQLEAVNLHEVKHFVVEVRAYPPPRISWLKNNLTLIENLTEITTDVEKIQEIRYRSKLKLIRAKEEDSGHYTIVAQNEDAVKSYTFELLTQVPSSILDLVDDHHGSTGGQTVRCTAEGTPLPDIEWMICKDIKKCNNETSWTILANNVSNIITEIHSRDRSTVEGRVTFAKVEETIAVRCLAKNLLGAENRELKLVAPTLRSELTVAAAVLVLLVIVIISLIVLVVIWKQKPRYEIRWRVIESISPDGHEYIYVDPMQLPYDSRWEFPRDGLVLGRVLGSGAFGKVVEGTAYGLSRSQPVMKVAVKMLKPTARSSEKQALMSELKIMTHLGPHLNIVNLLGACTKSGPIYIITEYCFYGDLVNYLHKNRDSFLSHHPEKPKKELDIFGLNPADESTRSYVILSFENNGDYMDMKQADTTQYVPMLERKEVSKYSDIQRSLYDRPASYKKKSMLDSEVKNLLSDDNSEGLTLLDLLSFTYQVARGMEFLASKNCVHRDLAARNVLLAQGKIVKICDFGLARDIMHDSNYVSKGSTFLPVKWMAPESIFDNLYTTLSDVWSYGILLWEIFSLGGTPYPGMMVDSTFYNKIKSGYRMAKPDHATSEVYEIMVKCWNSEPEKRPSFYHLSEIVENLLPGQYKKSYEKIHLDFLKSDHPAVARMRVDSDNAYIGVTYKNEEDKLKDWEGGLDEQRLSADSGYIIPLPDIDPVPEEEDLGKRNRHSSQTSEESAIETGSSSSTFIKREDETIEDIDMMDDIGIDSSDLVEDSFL

MAP4K5 (human) = MAP4K5 (human) (UniProt Q9Y4K4)
[3] = molecular target: JAK1 JH1 catalytic (human) (UniProt P23458)
STK25 (human) = STK25 (human) (UniProt O00506)
EPHA5 (human) = EPHA5 (human) (UniProt P54756)
CDK4 CCND1 (human) = CDK4 CCND1 (human) (UniProt P24385+P11802)
ABL2 (human) = ABL2 (human) (UniProt P42684)
FGFR2 (human) = FGFR2 (human) (UniProt P21802)
PRKCB1 (human) = PRKCB1 (human) (UniProt P05771)
EPHA2 (human) = EPHA2 (human) (UniProt P29317)

Chain of KDR (human) (P35968 whole entry, looked up): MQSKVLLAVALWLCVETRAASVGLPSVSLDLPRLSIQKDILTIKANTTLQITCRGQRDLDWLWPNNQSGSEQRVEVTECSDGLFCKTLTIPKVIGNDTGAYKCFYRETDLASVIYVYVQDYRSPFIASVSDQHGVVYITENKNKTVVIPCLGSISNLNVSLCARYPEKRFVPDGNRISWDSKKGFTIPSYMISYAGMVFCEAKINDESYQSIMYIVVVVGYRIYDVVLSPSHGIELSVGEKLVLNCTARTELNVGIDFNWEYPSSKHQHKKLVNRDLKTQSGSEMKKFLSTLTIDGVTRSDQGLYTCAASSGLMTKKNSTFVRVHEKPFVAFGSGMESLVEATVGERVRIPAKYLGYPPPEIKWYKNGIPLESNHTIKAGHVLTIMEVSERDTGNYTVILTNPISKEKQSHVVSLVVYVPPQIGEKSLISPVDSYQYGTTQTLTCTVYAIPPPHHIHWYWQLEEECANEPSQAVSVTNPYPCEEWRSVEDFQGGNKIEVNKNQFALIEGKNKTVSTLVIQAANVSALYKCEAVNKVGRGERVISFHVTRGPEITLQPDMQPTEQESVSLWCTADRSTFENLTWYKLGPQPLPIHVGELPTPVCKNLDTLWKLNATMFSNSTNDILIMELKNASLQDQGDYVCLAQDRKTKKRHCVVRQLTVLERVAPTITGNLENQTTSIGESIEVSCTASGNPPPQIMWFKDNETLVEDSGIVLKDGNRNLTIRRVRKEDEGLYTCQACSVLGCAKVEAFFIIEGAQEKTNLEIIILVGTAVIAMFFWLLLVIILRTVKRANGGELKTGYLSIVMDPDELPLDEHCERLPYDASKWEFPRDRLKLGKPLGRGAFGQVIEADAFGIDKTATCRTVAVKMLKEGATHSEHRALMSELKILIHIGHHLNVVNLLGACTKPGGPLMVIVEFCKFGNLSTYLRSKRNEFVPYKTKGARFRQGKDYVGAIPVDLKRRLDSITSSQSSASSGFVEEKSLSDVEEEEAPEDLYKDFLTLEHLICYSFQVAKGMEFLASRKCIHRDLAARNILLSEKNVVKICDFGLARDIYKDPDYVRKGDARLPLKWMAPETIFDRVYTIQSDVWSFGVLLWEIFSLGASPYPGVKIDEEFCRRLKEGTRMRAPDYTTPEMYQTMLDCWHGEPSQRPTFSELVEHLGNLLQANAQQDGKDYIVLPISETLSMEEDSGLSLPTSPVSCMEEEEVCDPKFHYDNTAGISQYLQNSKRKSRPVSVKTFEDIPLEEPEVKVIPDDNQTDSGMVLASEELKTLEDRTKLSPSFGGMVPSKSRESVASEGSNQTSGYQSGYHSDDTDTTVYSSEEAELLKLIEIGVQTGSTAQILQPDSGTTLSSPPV
Chain of STK24 (human) (Q9Y6E0 whole entry, looked up): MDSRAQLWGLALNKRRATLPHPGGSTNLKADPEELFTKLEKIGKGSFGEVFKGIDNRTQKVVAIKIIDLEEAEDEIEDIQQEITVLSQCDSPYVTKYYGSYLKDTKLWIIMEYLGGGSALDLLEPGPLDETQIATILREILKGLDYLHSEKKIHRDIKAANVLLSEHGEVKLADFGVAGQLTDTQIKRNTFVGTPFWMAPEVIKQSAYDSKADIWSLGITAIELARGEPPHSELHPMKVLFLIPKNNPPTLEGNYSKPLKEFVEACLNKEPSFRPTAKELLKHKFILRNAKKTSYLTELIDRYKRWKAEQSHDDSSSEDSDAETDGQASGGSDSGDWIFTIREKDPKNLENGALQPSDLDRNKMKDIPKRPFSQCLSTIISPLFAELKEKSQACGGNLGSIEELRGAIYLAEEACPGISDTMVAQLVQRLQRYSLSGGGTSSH
Chain of SLK (human) (Q9H2G2 whole entry, looked up): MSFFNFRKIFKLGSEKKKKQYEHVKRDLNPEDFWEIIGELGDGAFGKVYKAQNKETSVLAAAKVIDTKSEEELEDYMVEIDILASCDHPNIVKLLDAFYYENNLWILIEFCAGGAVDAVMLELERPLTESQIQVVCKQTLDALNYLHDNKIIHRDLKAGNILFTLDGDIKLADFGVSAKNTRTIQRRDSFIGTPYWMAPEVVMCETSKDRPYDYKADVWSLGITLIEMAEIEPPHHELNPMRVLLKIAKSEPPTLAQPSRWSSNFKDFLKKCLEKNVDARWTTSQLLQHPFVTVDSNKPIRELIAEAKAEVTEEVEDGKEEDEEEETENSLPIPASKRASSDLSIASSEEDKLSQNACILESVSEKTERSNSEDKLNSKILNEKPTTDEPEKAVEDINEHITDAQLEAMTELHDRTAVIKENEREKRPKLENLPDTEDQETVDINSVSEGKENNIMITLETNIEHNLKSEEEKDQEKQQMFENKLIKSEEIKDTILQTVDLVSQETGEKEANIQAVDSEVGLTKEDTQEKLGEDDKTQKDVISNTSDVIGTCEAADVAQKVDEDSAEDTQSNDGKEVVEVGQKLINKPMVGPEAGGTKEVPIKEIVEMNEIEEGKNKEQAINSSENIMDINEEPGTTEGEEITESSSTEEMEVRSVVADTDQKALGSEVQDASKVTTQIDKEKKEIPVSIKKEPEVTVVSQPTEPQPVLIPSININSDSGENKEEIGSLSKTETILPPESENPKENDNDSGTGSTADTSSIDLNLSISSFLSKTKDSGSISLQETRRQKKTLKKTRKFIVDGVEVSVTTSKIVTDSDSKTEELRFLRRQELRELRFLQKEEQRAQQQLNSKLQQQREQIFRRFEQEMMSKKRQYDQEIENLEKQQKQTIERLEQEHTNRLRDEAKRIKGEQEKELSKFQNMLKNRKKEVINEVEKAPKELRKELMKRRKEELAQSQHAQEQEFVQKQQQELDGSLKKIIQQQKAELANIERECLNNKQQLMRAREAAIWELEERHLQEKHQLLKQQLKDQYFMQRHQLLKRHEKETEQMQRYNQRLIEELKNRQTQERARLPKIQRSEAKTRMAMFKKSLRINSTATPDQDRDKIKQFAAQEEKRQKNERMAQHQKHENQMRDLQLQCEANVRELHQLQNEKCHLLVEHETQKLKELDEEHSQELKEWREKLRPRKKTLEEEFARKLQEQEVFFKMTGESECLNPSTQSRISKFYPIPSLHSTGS

## CS(=O)(=O)CCNCc1ccc(-c2ccc3ncnc(Nc4ccc(OCc5cccc(F)c5)c(Cl)c4)c3c2)o1
KDR (human)
  residual activity: 96.6%
STK24 (human)
  residual activity: 106%
PRKCZ (human)
  residual activity: 79.7%
SRMS (human)
  residual activity: 97.9%
MAP3K14 (human)
  residual activity: 109%
SLK (human)
  residual activity: 85.1%
DYRK1B (human)
  residual activity: 93.1%
GRK4 (human)
  residual activity: 90.3%
SGK2 (human)
  residual activity: 106%
ACVR1B (human)
  residual activity: 98.7%
HIPK4 (human)
  residual activity: 108%
SIK2 (human)
  residual activity: 101%
DYRK3 (human)
  residual activity: 90.2%
CAMKK2 (human)
  residual activity: 101%
WNK2 (human)
  residual activity: 102%
NUAK2 (human)
  residual activity: 95.1%
BLK (human)
  residual activity: 95.9%
CDK1 CCNA2 (human)
  residual activity: 101%
[1]
  residual activity: 95.5%
TNK2 (human)
  residual activity: 97.5%
STK3 (human)
  residual activity: 93.7%
CDK5 CDK5R1 p35 (human)
  residual activity: 103%
[2]
  residual activity: 93.3%
PRKCD (human)
  residual activity: 103%
ROCK1 (human)
  residual activity: 108%
CAMK2B (human)
  residual activity: 93.8%
PRKD3 (human)
  residual activity: 88.6%
MET (human)
  residual activity: 84.1%
MELK (human)
  residual activity: 88.5%
CSF1R (human)
  residual activity: 106%
CAMKK1 (human)
  residual activity: 98.8%
RPS6KA1 KD1 KD2 (human)
  residual activity: 105%
PDGFRA (human)
  residual activity: 108%
MAP4K5 (human)
  residual activity: 109%
[3]
  residual activity: 98%
STK25 (human)
  residual activity: 102%
EPHA5 (human)
  residual activity: 103%
CDK4 CCND1 (human)
  residual activity: 94.8%
ABL2 (human)
  residual activity: 97.3%
FGFR2 (human)
  residual activity: 96.4%
PRKCB1 (human)
  residual activity: 93.5%
EPHA2 (human)
  residual activity: 99%

## c1ccc2c(-c3ccncc3)c[nH]c2c1
KDR (human)
  residual activity: 94.2%
STK24 (human)
  residual activity: 93.5%
PRKCZ (human)
  residual activity: 98.3%
SRMS (human)
  residual activity: 107%
MAP3K14 (human)
  residual activity: 112%
SLK (human)
  residual activity: 103%
DYRK1B (human)
  residual activity: 90.5%
GRK4 (human)
  residual activity: 94.9%
SGK2 (human)
  residual activity: 91%
ACVR1B (human)
  residual activity: 98.8%
HIPK4 (human)
  residual activity: 93.8%
SIK2 (human)
  residual activity: 90.5%
DYRK3 (human)
  residual activity: 101%
CAMKK2 (human)
  residual activity: 113%
WNK2 (human)
  residual activity: 96.9%
NUAK2 (human)
  residual activity: 136%
BLK (human)
  residual activity: 99.6%
CDK1 CCNA2 (human)
  residual activity: 90.6%
[1]
  residual activity: 101%
TNK2 (human)
  residual activity: 96.1%
STK3 (human)
  residual activity: 112%
CDK5 CDK5R1 p35 (human)
  residual activity: 96%
[2]
  residual activity: 119%
PRKCD (human)
  residual activity: 83.2%
ROCK1 (human)
  residual activity: 84.2%
CAMK2B (human)
  residual activity: 90.5%
PRKD3 (human)
  residual activity: 90.7%
MET (human)
  residual activity: 91.4%
MELK (human)
  residual activity: 102%
CSF1R (human)
  residual activity: 101%
CAMKK1 (human)
  residual activity: 122%
RPS6KA1 KD1 KD2 (human)
  residual activity: 93.8%
PDGFRA (human)
  residual activity: 95%
MAP4K5 (human)
  residual activity: 106%
[3]
  residual activity: 109%
STK25 (human)
  residual activity: 117%
EPHA5 (human)
  residual activity: 99.4%
CDK4 CCND1 (human)
  residual activity: 112%
ABL2 (human)
  residual activity: 91.9%
FGFR2 (human)
  residual activity: 105%
PRKCB1 (human)
  residual activity: 95.1%
EPHA2 (human)
  residual activity: 106%
